Experimental data: ChEMBL document CHEMBL5303573, “Mapping human microbiome drug metabolism by gut bacteria and their genes” (Nature, 2019)

Assays:
Type in all cases: ADME
Design in all cases: dose 2 uM
Conditions in all cases: 2 µM
[1] = target: T1, Sialic acid-specific 9-O-acetylesterase (Bacteroides thetaiotaomicron, UniProt Q8A0D0); test: (§1) The drug is tested on Bacteroides thetaiotaomicron strain: VPI-5482 for biotransformation. The drug concentrations were measured before and after a 12-h incubation by liquid-chromatography-coupled mass spectrometry (LC–MS)
T1 sequence (Q8A0D0 whole entry): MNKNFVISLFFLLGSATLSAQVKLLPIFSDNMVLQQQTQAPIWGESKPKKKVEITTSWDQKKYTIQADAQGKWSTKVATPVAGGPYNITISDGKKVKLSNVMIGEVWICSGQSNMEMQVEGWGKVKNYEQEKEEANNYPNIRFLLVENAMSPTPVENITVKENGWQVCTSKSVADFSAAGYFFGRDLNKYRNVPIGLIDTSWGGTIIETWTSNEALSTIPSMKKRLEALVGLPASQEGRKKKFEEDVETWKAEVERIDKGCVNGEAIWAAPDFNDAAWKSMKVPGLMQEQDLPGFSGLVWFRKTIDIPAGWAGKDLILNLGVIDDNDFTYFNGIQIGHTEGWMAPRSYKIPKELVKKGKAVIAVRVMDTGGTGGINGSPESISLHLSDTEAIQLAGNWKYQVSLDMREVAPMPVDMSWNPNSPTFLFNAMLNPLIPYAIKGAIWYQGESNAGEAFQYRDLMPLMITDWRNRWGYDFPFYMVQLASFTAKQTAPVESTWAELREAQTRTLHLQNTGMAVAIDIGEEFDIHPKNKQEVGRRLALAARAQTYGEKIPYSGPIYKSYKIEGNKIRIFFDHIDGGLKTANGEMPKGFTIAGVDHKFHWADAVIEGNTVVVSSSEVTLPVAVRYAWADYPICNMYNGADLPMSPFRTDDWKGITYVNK

Regulatory protein = target: T2, Regulatory protein (Bacteroides thetaiotaomicron, UniProt Q8A576); test: as §1
T2 sequence (Q8A576 whole entry): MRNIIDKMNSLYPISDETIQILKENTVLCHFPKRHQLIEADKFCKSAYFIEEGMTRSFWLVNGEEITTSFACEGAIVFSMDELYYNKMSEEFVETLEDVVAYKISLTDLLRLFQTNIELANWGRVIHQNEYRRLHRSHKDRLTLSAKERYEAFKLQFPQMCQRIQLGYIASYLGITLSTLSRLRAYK

Acyltransferase = target: T3, Acyltransferase (Bacteroides thetaiotaomicron, UniProt Q8A575); test: as §1
T3 sequence (Q8A575 whole entry): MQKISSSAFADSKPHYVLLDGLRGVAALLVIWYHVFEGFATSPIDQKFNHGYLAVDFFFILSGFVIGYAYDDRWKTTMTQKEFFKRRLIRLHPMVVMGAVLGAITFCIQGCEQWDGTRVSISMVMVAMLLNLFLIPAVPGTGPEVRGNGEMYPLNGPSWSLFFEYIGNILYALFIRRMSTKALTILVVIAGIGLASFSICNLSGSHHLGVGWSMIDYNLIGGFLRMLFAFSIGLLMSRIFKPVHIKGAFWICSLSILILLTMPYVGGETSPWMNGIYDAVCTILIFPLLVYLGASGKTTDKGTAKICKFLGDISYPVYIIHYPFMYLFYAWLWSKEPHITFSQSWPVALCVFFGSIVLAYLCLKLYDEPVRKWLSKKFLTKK

[2] = target: T4, Lipolytic enzyme, G-D-S-L family (Bacteroides thetaiotaomicron, UniProt Q8A0E6); test: as §1
T4 sequence (Q8A0E6 whole entry): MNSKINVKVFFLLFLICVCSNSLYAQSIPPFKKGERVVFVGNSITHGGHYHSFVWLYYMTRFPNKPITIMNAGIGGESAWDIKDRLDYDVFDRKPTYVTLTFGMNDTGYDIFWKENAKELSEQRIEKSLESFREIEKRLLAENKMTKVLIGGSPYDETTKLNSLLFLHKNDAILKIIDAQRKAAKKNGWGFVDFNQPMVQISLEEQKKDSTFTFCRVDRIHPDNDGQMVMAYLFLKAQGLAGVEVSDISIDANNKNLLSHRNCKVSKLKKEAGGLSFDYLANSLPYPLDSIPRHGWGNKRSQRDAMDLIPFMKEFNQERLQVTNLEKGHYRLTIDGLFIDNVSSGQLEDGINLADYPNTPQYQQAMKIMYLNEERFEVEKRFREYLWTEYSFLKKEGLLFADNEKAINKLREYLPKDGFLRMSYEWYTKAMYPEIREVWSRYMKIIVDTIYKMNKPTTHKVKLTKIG

[3] = target: T5, Lipolytic enzyme, G-D-S-L family (Bacteroides thetaiotaomicron, UniProt Q8A0C5); test: as §1
T5 sequence (Q8A0C5 whole entry): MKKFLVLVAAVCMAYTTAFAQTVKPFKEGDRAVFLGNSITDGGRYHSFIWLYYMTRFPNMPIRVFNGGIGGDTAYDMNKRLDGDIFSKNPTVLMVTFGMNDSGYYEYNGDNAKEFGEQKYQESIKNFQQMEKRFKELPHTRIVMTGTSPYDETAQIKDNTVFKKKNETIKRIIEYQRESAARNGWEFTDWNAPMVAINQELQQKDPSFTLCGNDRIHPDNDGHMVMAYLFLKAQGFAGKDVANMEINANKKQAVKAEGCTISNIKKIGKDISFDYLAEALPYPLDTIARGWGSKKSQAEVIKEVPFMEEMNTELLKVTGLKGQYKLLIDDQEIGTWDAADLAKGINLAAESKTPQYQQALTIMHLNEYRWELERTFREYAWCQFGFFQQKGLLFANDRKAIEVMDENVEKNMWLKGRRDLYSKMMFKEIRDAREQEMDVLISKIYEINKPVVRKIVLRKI

Xylanase = target: T6, Xylanase (Bacteroides thetaiotaomicron, UniProt Q8A8H5); test: as §1
T6 sequence (Q8A8H5 whole entry): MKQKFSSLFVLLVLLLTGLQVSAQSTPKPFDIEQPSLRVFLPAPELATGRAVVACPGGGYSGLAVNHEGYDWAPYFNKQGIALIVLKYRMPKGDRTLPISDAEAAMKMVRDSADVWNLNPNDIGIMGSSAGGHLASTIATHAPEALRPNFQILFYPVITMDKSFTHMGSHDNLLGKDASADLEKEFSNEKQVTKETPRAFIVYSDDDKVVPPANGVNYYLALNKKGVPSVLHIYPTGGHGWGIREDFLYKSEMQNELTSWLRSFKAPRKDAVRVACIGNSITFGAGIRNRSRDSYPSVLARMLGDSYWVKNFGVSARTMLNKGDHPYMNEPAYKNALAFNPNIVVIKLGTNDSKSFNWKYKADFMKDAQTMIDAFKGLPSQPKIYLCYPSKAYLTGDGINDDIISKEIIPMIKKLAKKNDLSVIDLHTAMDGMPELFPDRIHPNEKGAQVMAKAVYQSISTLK

Bacterial Biotransformation [1]	Bacterial Biotransformation (Regulatory protein)	Bacterial Biotransformation (Acyltransferase)	Bacterial Biotransformation [2]	Bacterial Biotransformation [3]	Bacterial Biotransformation (Xylanase)	SMILES
Compound NOT metabolized	Compound NOT metabolized	Compound NOT metabolized	Compound NOT metabolized	–	–	O=C(O)c1cc(/N=N/c2ccc(S(=O)(=O)Nc3ccccn3)cc2)ccc1O [SULFASALAZINE]
Compound NOT metabolized	Compound NOT metabolized	Compound NOT metabolized	Compound NOT metabolized	Compound NOT metabolized	Compound NOT metabolized	COc1ccnc(C[S+]([O-])c2nc3ccc(OC(F)F)cc3[nH]2)c1OC (stereo not given) [PANTOPRAZOLE]
Compound NOT metabolized	Compound NOT metabolized	Compound NOT metabolized	Compound NOT metabolized	Compound NOT metabolized	Compound NOT metabolized	Nc1ccc(/N=N/c2ccccc2)c(N)n1 [PHENAZOPYRIDINE]
Compound NOT metabolized	Compound NOT metabolized	Compound NOT metabolized	Compound NOT metabolized	Compound NOT metabolized	Compound NOT metabolized	CCS(=O)(=O)CCn1c([N+](=O)[O-])cnc1C [TINIDAZOLE]
Compound NOT metabolized	Compound metabolized	Compound NOT metabolized	–	Compound metabolized	Compound metabolized	CC(=O)OCC(=O)NCCCOc1cccc(CN2CCCCC2)c1 [ROXATIDINE ACETATE]
Compound metabolized	Compound NOT metabolized	Compound NOT metabolized	Compound NOT metabolized	Compound metabolized	Compound metabolized	CC(=O)SCC(Cc1ccccc1)C(=O)NCC(=O)OCc1ccccc1 (stereo not given) [RACECADOTRIL]

The next lines start with the compound.

SMILES	Bacterial Biotransformation [1]	Bacterial Biotransformation (Regulatory protein)	Bacterial Biotransformation (Acyltransferase)	Bacterial Biotransformation [2]	Bacterial Biotransformation [3]	Bacterial Biotransformation (Xylanase)
CCOC(=O)C1=C(C)NC(C)=C(C(=O)OC)C1c1cccc([N+](=O)[O-])c1 (stereo not given) [NITRENDIPINE]	Compound NOT metabolized	Compound NOT metabolized	Compound NOT metabolized	Compound NOT metabolized	Compound NOT metabolized	Compound metabolized
CCN(CC)C(=O)/C(C#N)=C/c1cc(O)c(O)c([N+](=O)[O-])c1 [ENTACAPONE]	Compound NOT metabolized	Compound NOT metabolized	Compound NOT metabolized	Compound NOT metabolized	Compound NOT metabolized	Compound NOT metabolized
C#C[C@]1(O)CC[C@H]2[C@@H]3CCC4=Cc5oncc5C[C@]4(C)[C@H]3CC[C@@]21C [DANAZOL]	Compound NOT metabolized	Compound NOT metabolized	Compound NOT metabolized	Compound NOT metabolized	Compound NOT metabolized	Compound NOT metabolized
CC(=O)OCC(=O)[C@@]12N=C(C)O[C@@H]1C[C@H]1[C@@H]3CCC4=CC(=O)C=C[C@]4(C)[C@H]3[C@@H](O)C[C@@]12C [DEFLAZACORT]	Compound NOT metabolized	Compound NOT metabolized	Compound NOT metabolized	Compound NOT metabolized	Compound metabolized	Compound NOT metabolized
CC(=O)Nc1ccc(OC(C)=O)cc1 [DIACETAMATE]	Compound metabolized	Compound metabolized	Compound NOT metabolized	Compound NOT metabolized	Compound metabolized	Compound metabolized
CC(=O)Oc1ccc(C(c2ccc(OC(C)=O)cc2)c2ccccn2)cc1 [BISACODYL]	Compound metabolized	Compound NOT metabolized	Compound NOT metabolized	Compound NOT metabolized	Compound metabolized	Compound metabolized
C[C@@H]1CC[C@H]2[C@@H](C)C(=O)O[C@@H]3O[C@@]4(C)CC[C@@H]1[C@]32OO4 [ARTEMISININ]	Compound NOT metabolized	Compound NOT metabolized	Compound NOT metabolized	Compound NOT metabolized	Compound NOT metabolized	Compound NOT metabolized
